The results in this text go back to the Kinase Knowledgebase extract (Sharma et al. 2016).

One assay addresses CDK2 (human) (UniProt P24941). The experiment in a line: Cell-Based Assay.
For another assay, the target named is CDK2 (UniProt P24941). As to the kind of experiment: Enzyme Assay.

Take `Cc1ccccc1-c1[nH]nc2c1N=C(c1ccccc1Cl)c1cc([N+](=O)[O-])ccc1N2`: the IC50 lay in the range of 10 to 30 µM at CDK2 (human) (hct 116), 10 to 30 µM against CDK2 (human) (sw480) and 1 to 9.99 µM on CDK2.
As for `c1ccc(C2=Nc3c[nH]nc3Nc3ccccc32)cc1`, the IC50 is 10 to 30 µM against CDK2 (human) (hct 116), 10 to 30 µM against CDK2 (human) (sw480) and 1 to 9.99 µM against CDK2.
Take `Nc1ccc2c(c1)C(c1ccccc1Cl)=Nc1c[nH]nc1N2`: the IC50 on CDK2 (human) (hct 116) lay in the range of 10 to 30 µM; at CDK2 (human) (mda-mb-435) it was 10 to 30 µM; against CDK2 (human) (sw480) it was 10 to 30 µM; on CDK2, 1 to 9.99 µM.
For `Clc1ccc2c(c1)C(c1ccccc1Cl)=Nc1c[nH]nc1N2`, the IC50 at CDK2 fell in the range of 10 to 30 µM.
Same read-out and setting: under `O=[N+]([O-])c1ccc2c(c1)C(c1ccccc1Cl)=Nc1c(n[nH]c1-c1ccccc1[N+](=O)[O-])N2` stands 10 to 30 µM.
`O=[N+]([O-])c1ccc2c(c1)C(c1ccccc1Cl)=Nc1c(n[nH]c1-c1ccccc1C(F)(F)F)N2`: the IC50 on CDK2 (human) (sw480) and against CDK2 was 10 to 30 µM in each case.
For `O=[N+]([O-])c1ccc2c(c1)C(c1ccccc1Cl)=Nc1c(n[nH]c1-c1ccsc1)N2`, at CDK2, the IC50 fell in the range of 0.01 to 0.99 µM.
At CDK2, `O=C(O)c1ccc2c(c1)C(c1ccccc1F)=Nc1c[nH]nc1N2` had an IC50 of 1 to 9.99 µM.
Same read-out and setting: the value for `CN(C)c1ccc(-c2[nH]nc3c2N=C(c2ccccc2Cl)c2cc([N+](=O)[O-])ccc2N3)cc1` was 1 to 9.99 µM.
For the compound `CCOC(=O)c1[nH]nc2c1N=C(c1ccccc1Cl)c1cc([N+](=O)[O-])ccc1N2`, the IC50 against CDK2 (human) (mda-mb-435) lay within 10 to 30 µM; against CDK2 it was 1 to 9.99 µM.
On CDK2, `O=C(O)c1ccc2c(c1)C(c1ccccc1)=Nc1c[nH]nc1N2` yielded an IC50 of 1 to 9.99 µM.
On to `CS(=O)(=O)c1ccc2c(c1)C(c1ccccc1)=Nc1c[nH]nc1N2`, for which the IC50 against CDK2 (human) (hct 116) lay within 10 to 30 µM; on CDK2, 1 to 9.99 µM.
At CDK2, `N#Cc1cccc(-c2[nH]nc3c2N=C(c2ccccc2Cl)c2cc([N+](=O)[O-])ccc2N3)c1` displayed an IC50 of 1 to 9.99 µM.
On the same count and under the same terms, the value for `O=[N+]([O-])c1ccc2c(c1)C(c1ccccc1)=Nc1c(n[nH]c1-c1cccnc1)N2` was 1 to 9.99 µM.
As for `O=[N+]([O-])c1ccc2c(c1)C(c1ccccc1Cl)=Nc1c(n[nH]c1Cc1ccccc1)N2`, the IC50 at CDK2 (human) (hct 116) fell in the range of 10 to 30 µM; at CDK2 (human) (mda-mb-435), 10 to 30 µM; against CDK2 (human) (sw480), 10 to 30 µM; on CDK2, 1 to 9.99 µM.
In turn, `CN(C)C(=O)c1[nH]nc2c1N=C(c1ccccc1Cl)c1cc([N+](=O)[O-])ccc1N2` returned an IC50 on CDK2 of 1 to 9.99 µM.
In the case of `O=[N+]([O-])c1ccc2c(c1)C(c1ccccc1Cl)=Nc1c(n[nH]c1-[n+]1ccc[nH]1)N2`, the IC50 against CDK2 (human) (mda-mb-435) lay in the range of 10 to 30 µM; on CDK2, 0.01 to 0.99 µM.
At CDK2, `CCc1ccc(-c2[nH]nc3c2N=C(c2ccccc2Cl)c2cc([N+](=O)[O-])ccc2N3)o1` yielded an IC50 of 1 to 9.99 µM.
Same read-out and setting: under `O=[N+]([O-])c1ccc2c(c1)C(c1ccccc1)=Nc1c(n[nH]c1-c1ncc[nH]1)N2` stands 1 to 9.99 µM; under `Fc1ccccc1C1=Nc2c[nH]nc2Nc2ccc(I)cc21`, 1 to 9.99 µM; under `O=[N+]([O-])c1ccc2c(c1)C(c1ccccc1)=Nc1c(n[nH]c1-c1ccccc1F)N2`, 10 to 30 µM.
Same read-out and setting: the value for `O=[N+]([O-])c1ccc2c(c1)C(c1ccccc1)=Nc1c(n[nH]c1-c1ccc3c(c1)OCO3)N2` was 10 to 30 µM; that for `CC(C)Cc1[nH]nc2c1N=C(c1ccccc1Cl)c1cc([N+](=O)[O-])ccc1N2` was 1 to 9.99 µM.
For the compound `O=[N+]([O-])c1ccc2c(c1)C(c1ccccc1Cl)=Nc1c(n[nH]c1-c1cc3ccccc3o1)N2`, the values for the IC50 against CDK2 (human) (hct 116) and against CDK2 were 10 to 30 µM and 1 to 9.99 µM, respectively.
Take `O=[N+]([O-])c1ccc2c(c1)C(c1ccccc1Cl)=Nc1c(n[nH]c1-c1cc3ccccc3[nH]1)N2`: the results for the IC50 against CDK2 (human) (hct 116), against CDK2 (human) (sw480) and at CDK2 were 10 to 30 µM, 10 to 30 µM and 1 to 9.99 µM, respectively.
With `COC(=O)c1ccc2c(c1)C(c1ccccc1)=Nc1c[nH]nc1N2`, the IC50 at CDK2 was in the range of 1 to 9.99 µM.
On to `O=[N+]([O-])c1ccc2c(c1)C(c1ccccc1)=Nc1c(n[nH]c1-c1ccc3c(c1)OCCO3)N2`, for which the IC50 on CDK2 was in the range of 10 to 30 µM.
As to `O=[N+]([O-])c1ccc2c(c1)C(c1ccccc1Cl)=Nc1c(n[nH]c1-c1cccs1)N2`, the IC50 against CDK2 (human) (hct 116) was 10 to 30 µM; against CDK2 (human) (sw480), 10 to 30 µM; on CDK2, 0.01 to 0.99 µM.
For `O=[N+]([O-])c1ccc2c(c1)C(c1ccccc1Cl)=Nc1c(n[nH]c1-c1cccc(C(F)(F)F)c1)N2`, the IC50 against CDK2 (human) (hct 116) and on CDK2 was 10 to 30 µM throughout.
`N#Cc1ccccc1-c1[nH]nc2c1N=C(c1ccccc1Cl)c1cc([N+](=O)[O-])ccc1N2` registered an IC50 against CDK2 of 1 to 9.99 µM.
Take `Cc1ccsc1-c1[nH]nc2c1N=C(c1ccccc1Cl)c1cc([N+](=O)[O-])ccc1N2`: the IC50 on CDK2 (human) (hct 116) is 10 to 30 µM; on CDK2, 0.01 to 0.99 µM.
In turn, `O=[N+]([O-])c1ccc2c(c1)C(c1ccccc1Cl)=Nc1c(n[nH]c1-c1cccc(O)c1)N2` registered an IC50 against CDK2 of 1 to 9.99 µM.
On the same count and under the same terms, under `Cc1ccc(-c2[nH]nc3c2N=C(c2ccccc2Cl)c2cc([N+](=O)[O-])ccc2N3)cc1` stands 1 to 9.99 µM.
Regarding `Fc1ccccc1C1=Nc2c[nH]nc2Nc2ccccc21`, the results for the IC50 on CDK2 (human) (hct 116), against CDK2 (human) (sw480) and against CDK2 were 10 to 30 µM, 10 to 30 µM and 1 to 9.99 µM, respectively.
Regarding `O=[N+]([O-])c1ccc2c(c1)C(c1ccccc1Cl)=Nc1c(n[nH]c1-[o+]1ccnn1)N2`, the IC50 on CDK2 (human) (mda-mb-435) and against CDK2 was 10 to 30 µM throughout.
As for `O=[N+]([O-])c1ccc2c(c1)C(c1ccccc1Cl)=Nc1c(n[nH]c1CCc1ccccc1)N2`, the IC50 at CDK2 (human) (hct 116) was 10 to 30 µM; on CDK2 (human) (mda-mb-435), 10 to 30 µM; against CDK2 (human) (sw480), 10 to 30 µM; on CDK2, 1 to 9.99 µM.
At CDK2, `O=[N+]([O-])c1ccc2c(c1)C(c1ccccc1Cl)=Nc1c(n[nH]c1-c1cccc(Oc3ccccc3)c1)N2` registered an IC50 of 10 to 30 µM.
Same read-out and setting: the value for `Cc1ccc(-c2[nH]nc3c2N=C(c2ccccc2Cl)c2cc([N+](=O)[O-])ccc2N3)s1` was 1 to 9.99 µM; that for `CCOc1cccc(-c2[nH]nc3c2N=C(c2ccccc2Cl)c2cc([N+](=O)[O-])ccc2N3)c1` was 1 to 9.99 µM.
Turning to `Fc1ccc2c(c1)C(c1ccccc1F)=Nc1c[nH]nc1N2`, the IC50 lay in the range of 10 to 30 µM at CDK2 (human) (sw480) and 1 to 9.99 µM against CDK2.
`O=[N+]([O-])c1ccc2c(c1)C(c1ccccc1Cl)=Nc1c(n[nH]c1-c1ccc(-n3cccc3)cc1)N2`: the IC50 on CDK2 (human) (hct 116) and against CDK2 was 10 to 30 µM each time.
Regarding `Cc1[nH]nc2c1N=C(c1ccccc1)c1cc(I)ccc1N2`, the IC50 at CDK2 (human) (sw480) lay within 10 to 30 µM; against CDK2 it was 1 to 9.99 µM.
As to `O=C(c1ccc2c(c1)C(c1ccccc1F)=Nc1c[nH]nc1N2)N(CCO)CCO`, the IC50 against CDK2 lay within 1 to 9.99 µM.
Consider `Clc1ccc2c(c1)C(c1ccccc1)=Nc1c[nH]nc1N2`, for which, on CDK2, the concentration for half-maximal inhibition (IC50) fell in the range of 1 to 9.99 µM.

The term IC50 denotes the concentration at which inhibition is half-maximal. Low values mean inhibition by little substance, high ones a need for much substance.
